Literature values, collected in US5360612A, “Pharmaceutical compositions containing triazole derivatives for rectal administration” (Pfizer Inc., priority 1992, dated 1994).

Conditions: in vivo

## CN[C@@H](C)[C@H](O)c1ccccc1 [ephedrine]
  bioavailability from suppository fatty bases: do not show good bioavailability
